Measurements reported in patent US4110474A, “Tetramethylpentane blood substitutes” (Suntech, Inc., priority 1977, dated 1978).
Read-outs that look alike come from different tables or passages of the source.

Conditions: mouse, in vivo
Protocol: Mice were injected with the various emulsions. The mice were killed at intervals thereafter, the liver and spleen analyzed, and the percentage of original amount of PF material injected and still in the liver and spleen was determined.

perfluoromethylpentane
body retention: lack body retention characteristics
% FC (Of Injected Dose) in LIVER (2880 min): 15%
% FC (Of Injected Dose) in SPLEEN (2880 min): 1.4%
% FC (Of Injected Dose) in LIVER (10080 min): 12%
% FC (Of Injected Dose) in SPLEEN (10080 min): 6%
% FC (Of Injected Dose) in LIVER (20160 min): 9.3%
% FC (Of Injected Dose) in SPLEEN (20160 min): 9.2%
% FC (Of Injected Dose) in LIVER (41760 min): 2.3%
% FC (Of Injected Dose) in SPLEEN (41760 min): 2.7%
